Measured values from paper PMC10777851, “SMT-738: a novel small-molecule inhibitor of bacterial lipoprotein transport targeting Enterobacteriaceae” (Antimicrobial Agents and Chemotherapy, 2023).
≈ marks a conversion by molar mass, not a printed value. Where “and” joins values, the source holds several entries; their conditions need not be identical. Equal entries are not always repeated.

What was measured:
[1] = tested on: E. coli; experiment: MIC by broth microdilution (CLSI) against E. coli; type: cell-based, Escherichia coli
Experimental: (§1) MIC tests were performed by broth microdilution in-line with CLSI susceptibility testing standards ([20], [21]) either in-house or at IHMA (Europe and USA) or JMI Laboratories using cation-adjusted Mueller Hinton Broth.

[2] = tested on: members of the Enterobacterales order; experiment: MIC, panel of 100 bacterial species: Enterobacterales; type: cell-based; conditions: apart from the named exceptions
Experimental: as §1

[3] = tested on: Haemophilus influenzae; experiment: MIC, panel of 100 bacterial species; type: cell-based
Experimental: as §1

[4] = tested on: Haemophilus parainfluenzae; experiment: MIC, panel of 100 bacterial species; type: cell-based
Experimental: as §1

[5] = tested on: Hafnia alvei; experiment: MIC, panel of 100 bacterial species; type: cell-based
Experimental: as §1

[6] = Protein binding, mouse; type: in vitro ADME
[7] = Protein binding, human; type: in vitro ADME
[8] = tested on: K. pneumoniae ATCC 43816; experiment: Murine lung infection model (neutropenic); type: in vivo, male CD-1 mice; conditions: 20 mg/kg per dose QD or BID, 60-min IV infusion, 24 h post-infection
Experimental: Male JVC-cannulated CD-1 mice were rendered neutropenic using cyclophosphamide on days −4 and −1 (150 and 100 mg/kg, respectively). Mice were infected intranasally with K. pneumoniae ATCC 43816, and SMT-738 treatment was initiated at QD, 2 h post-infection; BID, 2 and 5 h post-infection. The pre-treatment control animals were euthanized at 2 h post-infection. All other study animals were euthanized at 24 h post-infection. Lungs were dissected and homogenized and quantitatively cultured, serially diluted, and plated on CLED agar, and CFU were quantified following overnight incubation at 30°C. A Kruskal-Wallis statistical test was performed.

[9] = Solubility in formulation vehicle; type: physicochemical; conditions: 20% Hydroxypropyl-β-cyclodextrin or phosphate buffer pH 6.0
[10] = 100 MDR clinical isolates incl. ESBL and CRE

**Q.** Which “MIC Range E. coli (NDM)” value ([1]; 15 clinical MDR NDM isolates (NDM-1, NDM-4, NDM-5) from India (2018)) does the source give for `Cc1cnccc1-c1[nH]c(N)nc1-c1ccc2c(c1)N(C(=O)C(C)(C)N)CCO2` [SMT-738] here?
**A.** 0.25 to 1 µg/mL

**Q.** What about the “MIC50 E. coli” value [1, 10] of the same compound?
**A.** 0.5 µg/mL (≈ 1.27 µM)

**Q.** And the “MIC90 E. coli” value [1, 10]?
**A.** 1 µg/mL (≈ 2.55 µM)

**Q.** And the “MIC range E. coli” value [1, 10]?
**A.** 0.12 to 4 µg/mL

**Q.** What about the MIC ([1]; E. coli BAA 2469 (NDM-1 positive)) of the same compound?
**A.** 0.5 µg/mL (≈ 1.27 µM)

**Q.** And the “MIC (20% HS)” value ([1]; E. coli IHMA 2015405, 20% human serum)?
**A.** 0.25 µg/mL (≈ 0.637 µM)

**Q.** And the “MIC (50% HS)” value ([1]; E. coli IHMA 2015405, 50% human serum)?
**A.** 0.25 µg/mL (≈ 0.637 µM)

**Q.** What about the “MIC (no HS)” value ([1]; E. coli IHMA 2015405, no human serum) of the same compound?
**A.** 0.5 µg/mL (≈ 1.27 µM)

**Q.** What about the “MIC (20% HS)” value ([1]; E. coli IHMA 2051414, 20% human serum) of the same compound?
**A.** 0.5 µg/mL (≈ 1.27 µM)

**Q.** What about the “MIC (50% HS)” value ([1]; E. coli IHMA 2051414, 50% human serum) of the same compound?
**A.** 0.5 µg/mL (≈ 1.27 µM)

**Q.** What about the “MIC (no HS)” value ([1]; E. coli IHMA 2051414, no human serum) of the same compound?
**A.** 0.5 µg/mL (≈ 1.27 µM)

**Q.** What about the MIC ([1]; E. coli NCTC 13441 (UPEC, MDR, CTX-M-15 ESBL)) of the same compound?
**A.** 0.39 µM and 0.15 µg/mL

**Q.** What about the MIC ([1]; E. coli UTI89) of the same compound?
**A.** 0.5 µg/mL (≈ 1.27 µM)

**Q.** What about the MICref ([1]; UPEC13441, reference MIC of the FoR experiments) of the same compound?
**A.** 0.3 µg/mL

**Q.** What about the MIC [2] of the same compound?
**A.** 0.12 to 2 µg/mL

**Q.** And the MIC [3]?
**A.** 1 µg/mL (≈ 2.55 µM)

**Q.** What about the MIC [4] of the same compound?
**A.** 1 µg/mL (≈ 2.55 µM)

**Q.** What about the MIC [5] of the same compound?
**A.** 32 µg/mL (≈ 81.5 µM)

**Q.** What about the protein binding [6] of the same compound?
**A.** 66.9%

**Q.** What about the protein binding [7] of the same compound?
**A.** 62.7%

**Q.** What about the “reduction of the bacterial burden below pre-treatment stasis level” value [8] of the same compound?
**A.** 1–2 log10

**Q.** And the Solubility [9]?
**A.** > 20 mg/mL
